Results published in US20060135569A1, “Use of benzisoselenazolone compounds against ischemic myocardial damage” (priority 2002, published 2006).
Marks after values point to notes of the source that are not given here.

Key:
Na^+/Ca^2+ exchanger = molecular target: T1, Na^+/Ca^2+ exchanger (Cavia porcellus, UniProt P48766); experiment: Na^+/Ca^2+ exchange current (INa—Ca), whole-cell patch clamp, intracellular Na^+ overload cell model; type: cell-based, guinea pig; set-up: Inhibitory rate of outward INa—Ca (%) / Inhibitory rate of inward INa—Ca (%): concentration or dose not given beside the values; conditions: for inhibitory ratio on INa—Ca at −80 mV: inward current; for inhibitory ratio on INa—Ca at +50 mV: outward current; for selectivity of inhibition of outward versus inward INa—Ca: biphasic ion conditioning; for effective concentration (significant inhibitory effect on reverse mode Na^+/Ca^2+ exchange): intracellular Na^+ overload
T1 construct: endogenous in cells; host or cells: freshly isolated guinea pig ventricular myocytes
Description: 1. Establishment of Assaying Method for Biphasical Current Detection in Na^+/Ca^2+ Exchange System
Since the reverse mode of Na^+/Ca^2+ exchange process is one of the main mechanisms involving in ischemia/reperfusion insult, it is of great importance to establish cell model represented reverse mode Na^+/Ca^2+ exchange process for the development of drugs against ischemic injury. Therefore, we successfully established cell model of reverse mode Na^+/Ca^2+ exchange system by intracellular Na^+ dialysis technique, and recorded Na^+/Ca^2+ exchange currents by patch clamp experiment.
Internal solution contained certain concentration of NaCl was filled to the microcatheter, and ion exchange process between the cellular and internal solutions was conducted after whole cell currents were recorded by patch clamp. Na^+ contained in the internal solution was dialyzed into the cell; result in the high intracellular Na^+ concentration. After that, the cell was champed at a holding potential of −40 mV, then depolarized to +60 mV and followed by a conversely declining ramp stimuli at a speed of 80 mV·s^−1 and 2 s conditioning pulse, then repolarized to −100 mV with a frequency of 0.05 Hz. Under the stimulation protocol, current from outward to the inward direction was recorded by perfusing modified biphasical Tyrode solution (in which the outward and inward currents can be recorded simultaneously) with the addition of 1 mmol·L^−1 of BaCl2 and 2 mmol·L^−1 of CsCl to block K^+ channels, 1 μmol·L^−1 of verapamil to block L-type Ca^2+ channels, and 20 μmol·L^−1 of ouabain to block Na^+/K^+ ATPase, and 20 mmol·L^−1 of TEA to block potassium channels. The recorded inward currents were presented in a linear manner owing to the blockade of other time-dependent currents. With the increase of intracellular Na^+ level and prolongation of time, the reverse mode of Na^+/Ca^2+ exchange process was activated. […] Under such experimental conditioning, the maximum reverse mode current was recorded 3 min after cell crushed. No significant “run-down” was observed within the record period of 8 minutes. The inward and outward current were inhibited by 5 mmol·L^−1 of Ni^2+ treatment, and the experiment result in two current-voltage curves in the absence or presence of Ni^2+. The Ni^2+ sensitive current, also called electrophysiological Na^+/Ca^2+ exchange current (INa·Ca), was the minus result of two current-voltage curves. The reverse mode potential of INa—Ca was about −20 mV
Male guinea pigs weighting 250˜280 g provided by the Animal Center of the Chinese Academy of Medical Sciences were hammered and sacrificed. The chest was opened and the heart was removed quickly. Fatty tissue and pericardium were removed in a Ca^2+-free solution at 4° C., and heart was sequentially mounted on a Langendorff apparatus. First, the heart was perfused conversely via the aorta for 6 min with Ca^2+-free solution in order to wash out residual blood, then the heart expands and the color of it turns to pink. Then the heart was perfused with Ca^2+-free solution containing 0.1 mg/ml of pronase E, 0.5 mg/ml defatted bovine serum albumin (BSA) and 150 μM Ca^2+ for 2˜3 min, until the heart expanded and became soft. The atrium was removed, and the digested heart was minced with scissors, stirred in a beaker at 37° C. for 5˜10 min. The supernatant was diluted with Ca^2+-free solution containing 0.5 mg/ml BSA and 1.8 mM Ca^2+. The supernatant was placed at room temperature (20˜24° C.) for 1 hr and then subjected to the experiment. During the whole perfusion period, pressure was kept at 70 cmH2O and the temperature of solution was kept at 37° C. with continuously gassed with 95% O2 and 5% CO2.
Rod-shaped cells with clear striations and intact membrane were used. […]

[1] = tested on: isolated rat hearts subjected to ischemia-reperfusion (I/R); experiment: Isolated heart subjected to ischemia/reperfusion injury (arrhythmia); conditions: 10^−6 M; isolated heart ischemia/reperfusion
Description: Based on the pre-electrophysiological cell model screening, we have compared the inhibition ratios of the outward current by reverse-transportation of Na^+/Ca^2+ exchange, and further in vitro tests on isolated rat hearts subjected to ischemia-reperfusion (I/R) were conducted. Prolongation of ventricular arrhythmic, incidence rate of ventricular extrasystole, ventricular tachycardia/ventricular fibrillation (VT/VF) were recorded to evaluate the protective actions of drugs on myocardial injury.
On the basis of above screening results obtained from electrophysiological studies, and the result from comparative study on the research of the inhibitory effect of compounds on reverse mode Na^+/Ca^2+ exchange process, 7 effective compounds were subjected to in vitro study. Among which, IMM-313, IMM-004 and IMM-132 have structures containing chlorine; IMM-127, IMM-128 and IMM-129 have structures containing fluorine; and IMM-065 has a structure containing OH. The experiment performed in the isolated heart subjected to ischemia/reprefusion insult. Prolongation of ventricular arrhythmic, incidence of ventricular extrasystole, ventricular tachycardia/ventricular fibrillation (VT/VF) were recorded in order to evaluate the protective actions of drugs on myocardial injury.

[2] = tested on: arrhythmia caused by ischemia/reperfusion insults in anaesthetic rats; experiment: Ischemia/reperfusion arrhythmia in anaesthetic rats, intravenous injection; type: in vivo, rat; conditions: rats
Description: (1) Protective Effects of the Tested Compounds on Myocardial Insults in Rats after Intravenously Injection
Arrhythmic potency induced by myocardial insults was used to assess the potential protective effect of the compounds.

[3] = screening of 22 candidate compounds
[4] = Example 1 table, myocardial cell
[5] = 0.3 mg/Kg intravenous (femoral vein)

CCCCC1OC(=O)c2cccc(-n3[se]c4ccccc4c3=O)c21 (stereo not drawn) [IMM-623, 2-[4-(7-n-butyl-benzo(1,2-c-di-hydrofuran-2-one))]-1,2-benz-isoselenazol-3(2H)-one]
Inhibitory rate of inward INa—Ca (%) (Na^+/Ca^2+ exchanger; [3]): 15% | Inhibitory rate of outward INa—Ca (%) (Na^+/Ca^2+ exchanger; [3]): 11%

O=c1c2ccccc2[se]n1-c1cccnc1 [IMM-030, 2-(3-pyridyl)-1,2-benzisoselenazol-3(2H)-one]
Inhibitory rate of inward INa—Ca (%) (Na^+/Ca^2+ exchanger; [3]): 17% | Inhibitory rate of outward INa—Ca (%) (Na^+/Ca^2+ exchanger; [3]): 12%

O=c1c2cc(Cl)ccc2[se]n1-c1ccncc1 [IMM-132, 5-chloro-2-(4-pyridyl)-1,2-benz-isoselenazol-3(2H)-one]
AAT: arrhythmic occurrence time, Time [1]: 29.13 ± 0.69 min | VF (ventricular fibrillation) Incidence rate (%) [1]: 85.7% | VPS (ventricular premature beats) Incidence rate (%) [1]: 28.6% | VT (ventricular tachycardia) Incidence rate (%) [1]: 85.7% | Inhibitory rate of inward INa—Ca (%) (Na^+/Ca^2+ exchanger; [4]): 14% | Inhibitory rate of outward INa—Ca (%) (Na^+/Ca^2+ exchanger; [4]): 44% | Inhibitory rate of inward INa—Ca (%) (Na^+/Ca^2+ exchanger; [3]): 14% | Inhibitory rate of outward INa—Ca (%) (Na^+/Ca^2+ exchanger; [3]): 44* %

N=C(N)SCCc1ccc(OCc2ccc([N+](=O)[O-])cc2)cc1 [KB-R7943, 2-[2-[4-(4-nitrobenzyloxy)phenyl]]isothiourea, reference compound]
inhibitory ratio on INa—Ca at −80 mV (Na^+/Ca^2+ exchanger; 1 μM): 22% | inhibitory ratio on INa—Ca at +50 mV (Na^+/Ca^2+ exchanger; 1 μM): 29% | inhibitory ratio on INa—Ca at −80 mV (Na^+/Ca^2+ exchanger; 10 μM): 57% | inhibitory ratio on INa—Ca at +50 mV (Na^+/Ca^2+ exchanger; 10 μM): 61% | selectivity of inhibition of outward versus inward INa—Ca (Na^+/Ca^2+ exchanger): without selectivity | selectivity of inhibition of outward versus inward INa—Ca (Na^+/Ca^2+ exchanger; listed as KB-R794): poor selectivity

O=c1c2ccccc2[se]n1Cc1ccccn1 [IMM-058, 2-(2-pyridylmethyl)-1,2-benz-isoselenazol-3(2H)-one]
Inhibitory rate of outward INa—Ca (%) (Na^+/Ca^2+ exchanger; [3]): 3%

O=c1c2ccccc2[se]n1/C=C/C1N=CCN1 (stereo not drawn) [IMM-002, 2-[(3,4-dihydroimidazol-2-yl)-2-ethenyl]-1,2-benz-isoselenazol-3(2H)-one]
Inhibitory rate of inward INa—Ca (%) (Na^+/Ca^2+ exchanger; [3]): 34% | Inhibitory rate of outward INa—Ca (%) (Na^+/Ca^2+ exchanger; [3]): 32* %

N=C(N)NC(=O)c1nc(Cl)c(N)nc1N [Amiloride, reference compound]
inhibitory ratio on INa—Ca at −80 mV (Na^+/Ca^2+ exchanger; 10 μM): 6% | inhibitory ratio on INa—Ca at +50 mV (Na^+/Ca^2+ exchanger; 10 μM): 15% | inhibitory ratio on INa—Ca at −80 mV (Na^+/Ca^2+ exchanger; 30 μM): 15% | inhibitory ratio on INa—Ca at +50 mV (Na^+/Ca^2+ exchanger; 30 μM): 23% | inhibitory ratio on INa—Ca at −80 mV (Na^+/Ca^2+ exchanger; 100 μM): 23% | inhibitory ratio on INa—Ca at +50 mV (Na^+/Ca^2+ exchanger; 100 μM): 41% | effective concentration (significant inhibitory effect on reverse mode Na^+/Ca^2+ exchange) (Na^+/Ca^2+ exchanger): above 10^−5 mol·L^−1

O=c1c2ccccc2[se]n1-c1ccncc1 [IMM-001, 2-(4-pyridyl)-1,2-benzisoselenazol-3(2H)-one]
incidence and duration of VT, VF, VE / ventricular arrhythmic ([2]; 3 mg/Kg intravenous (femoral vein)): all reduced | inhibitory ratio on INa—Ca at −80 mV (Na^+/Ca^2+ exchanger; 0.1 μM): 15% | inhibitory ratio on INa—Ca at +50 mV (Na^+/Ca^2+ exchanger; 0.1 μM): 28% | inhibitory ratio on INa—Ca at −80 mV (Na^+/Ca^2+ exchanger; 1 μM): 24% | inhibitory ratio on INa—Ca at +50 mV (Na^+/Ca^2+ exchanger; 1 μM): 48% | inhibitory ratio on INa—Ca at −80 mV (Na^+/Ca^2+ exchanger; 10 μM): 42% | inhibitory ratio on INa—Ca at +50 mV (Na^+/Ca^2+ exchanger; 10 μM): 66% | selectivity of inhibition of outward versus inward INa—Ca (Na^+/Ca^2+ exchanger): high selectivity | effective concentration (significant inhibitory effect on reverse mode Na^+/Ca^2+ exchange) (Na^+/Ca^2+ exchanger): 10^−7 to 10^−5 mol·L^−1

O=c1c2cc(O)ccc2[se]n1-c1ccccc1 [IMM-164, 5-hydroxy-2-phenyl-1,2-benz-isoselenazol-3(2H)-one]
Inhibitory rate of inward INa—Ca (%) (Na^+/Ca^2+ exchanger; [3]): 22% | Inhibitory rate of outward INa—Ca (%) (Na^+/Ca^2+ exchanger; [3]): 8%

O=c1c2ccccc2[se]n1Cc1ccco1 [IMM-059, 2-(2-furanylmethyl)-1,2-benz-isoselenazol-3(2H)-one]
Inhibitory rate of inward INa—Ca (%) (Na^+/Ca^2+ exchanger; [3]): 15% | Inhibitory rate of outward INa—Ca (%) (Na^+/Ca^2+ exchanger; [3]): 8%

COc1ccc(CCN(C)CCCC(C#N)(c2ccc(OC)c(OC)c2)C(C)C)cc1OC (stereo not drawn) [Verapamil, reference compound]
incidence of VT, VF, VE and duration of arrhythmic [2, 5]: all reduced | latency of ventricular arrhythmic [2, 5]: significantly prolonged

O=c1c2cc(O)ccc2[se]n1-c1ccccn1 [IMM-163, 5-hydroxy-2-(2pyridyl)-1,2-benz-isoselenazol-3(2H)-one]
Inhibitory rate of inward INa—Ca (%) (Na^+/Ca^2+ exchanger; [3]): 19% | Inhibitory rate of outward INa—Ca (%) (Na^+/Ca^2+ exchanger; [3]): 14%

O=c1c2ccc(Cl)cc2[se]n1-c1ccccn1 [IMM-142, 6-chloro-2-(2-pyridyl)-1,2-benz-isoselenazol-3(2H)-one]
Inhibitory rate of inward INa—Ca (%) (Na^+/Ca^2+ exchanger; [3]): 57% | Inhibitory rate of outward INa—Ca (%) (Na^+/Ca^2+ exchanger; [3]): 46%

O=c1c2cc(Cl)ccc2[se]n1-c1ccccc1 [IMM-131, 5-chloro-2-phenyl-1,2-benz-isoselenazol-3(2H)-one]
Inhibitory rate of inward INa—Ca (%) (Na^+/Ca^2+ exchanger; [3]): 15% | Inhibitory rate of outward INa—Ca (%) (Na^+/Ca^2+ exchanger; [3]): 22%

O=c1c2ccc(Cl)cc2[se]n1-c1cccnc1 [IMM-141, 6-chloro-2-(3-pyridyl)-1,2-benz-isoselenazol-3(2H)-one]
Inhibitory rate of inward INa—Ca (%) (Na^+/Ca^2+ exchanger; [3]): 2%

O=c1c2cc(Cl)ccc2[se]n1-c1cccnc1 [IMM-125, 5-chloro-2-(3-pyridyl)-1,2-benz-isoselenazol-3(2H)-one]
Inhibitory rate of inward INa—Ca (%) (Na^+/Ca^2+ exchanger; [3]): 14% | Inhibitory rate of outward INa—Ca (%) (Na^+/Ca^2+ exchanger; [3]): 35%

O=c1c2cc(F)ccc2[se]n1-c1ccncc1 [IMM-129, 5-fluoro-2-(4-pyridyl)-1,2-benz-isoselenazol-3(2H)-one]
AAT: arrhythmic occurrence time, Time [1]: 23.67 ± 3.87 min | VF (ventricular fibrillation) Incidence rate (%) [1]: 63% | VPS (ventricular premature beats) Incidence rate (%) [1]: 37.5% | VT (ventricular tachycardia) Incidence rate (%) [1]: 75% | Inhibitory rate of inward INa—Ca (%) (Na^+/Ca^2+ exchanger; [4]): 57% | Inhibitory rate of outward INa—Ca (%) (Na^+/Ca^2+ exchanger; [4]): 59% | Inhibitory rate of inward INa—Ca (%) (Na^+/Ca^2+ exchanger; [3]): 57* % | Inhibitory rate of outward INa—Ca (%) (Na^+/Ca^2+ exchanger; [3]): 59* %

O=c1c2ccccc2[se]n1-c1cccc2cccnc12 [IMM-003, 2-(8-quinolinyl)-1,2-benz-isoselenazol-3(2H)-one]
Inhibitory rate of outward INa—Ca (%) (Na^+/Ca^2+ exchanger; [3]): 22%

O=c1c2cc(F)ccc2[se]n1-c1ccccc1 [IMM-130, 5-fluoro-2-phenyl-1,2-benz-isoselenazol-3(2H)-one]
Inhibitory rate of inward INa—Ca (%) (Na^+/Ca^2+ exchanger; [3]): 43% | Inhibitory rate of outward INa—Ca (%) (Na^+/Ca^2+ exchanger; [3]): 30%
